The subject of series [1] is Heterodera schachtii. In words: Heterodera schachtii infection in sugar beet (Example 9). Format: in vivo. To be noted: 10 μM PA. Here is the method: Sugar beet seeds (cultivar Jolgeh) were germinated for five days at 25° C. on sterile potting soil saturated with distilled water. Seedlings were transferred to SAP tubes, which were placed in a growth chamber at 24° C. (16h per day of fluorescent lighting). The first two days after transfer, the tubes were covered with a polyethylene film (Saran Film, Dow Chemicals, Midland, USA) to prevent excessive evaporation. Seedlings were watered three times per week with 8 ml of Hoagland solution.
Cysts were collected from sugar beets (cv. Jolgeh) kept in a growing chamber at 21° C. through a flotation protocol. Plant roots and their surrounding soil were placed in a water bath at room temperature and gently agitated, followed by decanting and sieving to allow collection of cysts. Cysts were are-dried for two days and stored until use.
Hatching of cysts was induced by exposing them to a zinc chloride solution (3 mM in distilled water) at 25° C. for three days. Five 100 μl samples were taken from this suspension. The number of J2 juveniles in each sample was counted and the results were averaged. Sugar beet plants were inoculated fourteen days after transfer to SAP with the required volume of suspension to inoculate each plant with an average of 250 J2 nematodes.
Infection experiments with H. schachtii were performed by inoculating host plants 14 days after transfer to SAP by introducing 250 J2 juveniles to their root system using a micro pipette. Plants were harvested 31 days after inoculation. At this point, the plants were phenotyped by measuring the root and shoot length with a ruler. Cysts were collected through a sucrose flotation protocol and then counted and microscopically assessed for maturity.
To test whether the compounds of the invention are effective against other nematodes and in other plant species, PA was tested on the interaction between the dicot crop sugar beet (Beta vulgaris) and the cyst nematode Heterodera schachtii. At this point, it was not known whether dicots would tolerate PA as well as monocots and so a much lower dose (10 μM) was used instead.

The subject of series [2] is OsGH3.1. In words: qRT-PCR in rice roots, OsGH3.1 (Example 20). Format: in vivo, Oryza sativa. To be noted: rice cv. Bomba root tissue; same samples as Example 19. Here is the method: (§1) After quality control, qPCR was carried out.
(§2) To test whether other defense hormones might be involved, genes responsive to jasmonic acid (the biosynthesis gene OsAOS2) and auxin (the auxin conjugating enzyme OsGH3.1) were investigated. Moreover, the callose-degrading enzyme OsGNS5, downregulation of which is associated with basal defense, was also investigated. The qRT-PCR analysis was performed on the same samples used in the previous Example.
In general terms: Real-time PCR tracks product formation cycle by cycle.

Series [3] concerns Meloidogyne incognita. In words: Meloidogyne incognita infection in tomato cv. Moneymaker (Example 7). The series is classed as in vivo. As for the experimental part:
Tomato seeds, cv. Moneymaker (Vreeken's Zaden, Dordrecht, the Netherlands) were sown on autoclaved potting soil coveed with polyethylene film and placed at 24° C. for eight days. Seedlings were then transferred to individual SAP-filled pots and placed in a growth chamber at 24° C. Plants were watered three times per week with 25 ml of quarter-strength Hoagland solution for the first two weeks and half-strength thereafter.
M. incognita was extracted from infected tomato plants (cv. Moneymaker) roots grown in potting soil at 24° C. Nematodes were collected, counted and inoculated using the same procedure described for M. graminicola above.
Unless otherwise mentioned, all chemicals for nematode experiments were applied as a foliar spray consisting of the target compound at a concentration of 300 μM together with 0.1% (v/v) Tween 20 surfactant (Calbiochem) in distilled water. Again unless otherwise mentioned, all treatments for the nematode experiments were carried out three times: one and eight days before pathogen inoculation and seven days after pathogen inoculation. In all cases, plants were sprayed until run-off with an atomizer.
(§3) Infection experiments with M. incognita were performed in the same manner as those with M. graminicola, except that plants were harvested 31 days after inoculation instead of 14 days. At this point, the plants were phenotyped by measuring the root length with a ruler and in some experiments by measuring leaf area using the EasyLeafArea software (Easlon and Bloom, 2014) and by determining shoot dry mass after 72 hours of drying in an oven at 70° C. Galls were stained and counted as described above.
Additionally, a possible dose response effect was investigated by applying PA at three concentrations: 100, 400 and 700 μM.

Series [4] concerns Meloidogyne incognita. Description: M. incognita infection in NahG-expressing tomato (Example 17). The series is classed as in vivo. Here is the method: as §3
To evaluate this further, a tomato line deficient in salicylic acid biosynthesis and signaling respectively was treated with PA. […] If this line still responds to PA, it further strengthens the notion that salicylic acid accumulation is not the cause of C4H inhibitor-induced nematode resistance, for which evidence in rice was already provided in Example 16.

The test system of series [5] is Fusarium solani (isolate Fso18). Description: Onion seedling emergence with PA seed coating, Fusarium solani (Example 12). Format: in vivo. Particulars: onion seeds with 300 μM PA coating vs mock coating. As for the experimental part: Seed coatings were applied by dipping seeds in a coating solution containing 20 g/I high viscosity carboxymethylcellulose (Sigma-Aldrich, Saint Louis, USA) in distilled water as well as 300 μM of the target compound. Seeds were then dried overnight at room temperature.
Onion seeds were coated with a 300 μM PA solution as outlined in the chemical treatments section. F. oxysporum (isolate Foc26), F. solani (isolate Fso18) and F. proliferatum (isolate Fpr18) were originally extracted from Vietnamese onion fields. Inoculum was obtained as described in the fungal culture section. The inoculum was diluted to a concentration of 1.0×10^7 spores per ml with sterile PBS buffer. The coated seeds were then soaked in the spore solution for one hour. To avoid excessive PA leaching from the PA coating, 100 μM of PA was added to the spore solution.
After soaking in the PA solution, seeds were left to dry for thirty minutes. Twenty seeds were then sowed per pot in potting soil; three pots were used per treatment and per fungal isolate (for a total of 60 seeds per treatment-isolate combination). The pots were covered in cling film and left on a window sill at room temperature. After eight and ten days, the number of germinated seedlings per pot was counted.
Germination experiments were analyzed by fitting a three-parameter log-logistic model as implemented in the R drc package.

The subject of series [6] is Meloidogyne incognita. In words: M. incognita infection in DIECA-treated tomato (Example 18). The series is classed as in vivo. Particulars: PA together with DIECA. As for the experimental part:
as §3
To determine whether C4H inhibitors depend on this hormonal pathway, it was tested whether tomato plants treated with the chemical inhibitor of jasmonic acid biosynthesis diethyldithiocarbamate (DIECA) (Farmer et al., 1994) still responded to PA treatment.

In series [7] the test system is OsAOS2. In words: qRT-PCR in rice roots, OsAOS2 (Example 20). To be noted: rice cv. Bomba root tissue; same samples as Example 19. The series is classed as in vivo, Oryza sativa. Here is the method:
as §1, §2

For series [8], the system named is spring wheat (Triticum aestivum cv. Fielder). Description: Yield and fertility in pathogen-free spring wheat (Example 2). Particulars: 300 μM foliar spray three times; vs. control.
Protocol: For Example 2, the spring wheat cultivar Fielder was used. Seeds were obtained from plants grown in the greenhouse complex of the VIB (Zwijnaarde, Belgium). Seeds were sown directly in potting soil (four seeds to a pot, thinned to three plants per pot after emergence) and placed in a growth chamber at 21° C. with 16 hours per day of light. These plants were grown until harvest; they were sprayed three times with the compounds of the invention at a concentration of 300 μM using the protocol described in the chemicals section. Spraying took place 14 and 21 days after emergence and a final time at heading.
In all cases model assumptions were verified using diagnostic plots (residuals, QQ-plot, scale-location and residuals-leverage). Outliers were removed only if they were outliers both in the statistical sense and if there was a biological reason for removal (e.g. the plant was stunted or developed a secondary infection).
To determine the effects of C4H inhibition on yield and fertility, spring wheat (Triticum aestivum cv. Fielder) was grown in a pathogen-free growth chamber until maturity and treated with a control or C4H inhibitor-containing foliar spray at regular intervals. At harvest, the number of ears per plant, the seed mass, the size of the seeds and the germination ability of the freshly harvested seeds were measured. Seed size was measured using the stacking density of the seed as a proxy measure; if a given seed mass takes up a greater volume, then the individual seeds must be larger.
Setting [9] is: infected sugar beet, mean ± SD, n = 8.

For the compound `O=C(O)c1ccc2c(c1)OCO2` [PA, Piperonylic acid], in series [1] (setting [9]), the “Number of mature cysts” value is on record as 7.5 ± 4.4, the “Proportion of mature cysts” value is 0.48 ± 0.25 and the “Total number of cysts” value is 15.3 ± 0.7. For the same compound, the “reduction of the number of Heterodera schachtii nematodes” value in series [1] (sugar beet, statistically insignificant) is given as 20%. The “Fold change vs. control, OsGH3.1 expression” value in series [2] came out at 1.21. In addition, the “negative effects on growth or development of the tomato plants” value in series [3] (100, 400 and 700 μM foliar spray) was “no negative effects on growth or development”. The “Percent difference of mean number of galls per root system, PA100 vs. PA400” value in series [3] (tomato, 100 μM compared with 400 μM) is listed as −9%. For the same compound, in series [3] (tomato, 100 μM compared with 700 μM), the “Percent difference of mean number of galls per root system, PA100 vs. PA700” value is on record as −2%. In series [3] (tomato, 400 μM compared with 700 μM), the “Percent difference of mean number of galls per root system, PA400 vs. PA700” value is “+11%”. For the same compound, in series [3] (tomato, foliar spray 100 μM), the “Percent difference of mean number of galls per root system, PA100 vs. CON” value was −54%. Also, the “Percent difference of mean number of galls per root system, PA400 vs. CON” value in series [3] (tomato, foliar spray 400 μM) is recorded as −50%. The “Percent difference of mean number of galls per root system, PA700 vs. CON” value in series [3] (tomato, foliar spray 700 μM) is recorded as −55%. For the same compound, the “change of number of galls, PA-treated NahG plants vs untreated wild type plants” value in series [4] (NahG-expressing (SA-deficient) tomato) is reported as −36%. Further, the “difference in number of galls, PA-treated NahG plants vs PA-treated wild type plants” value in series [4] (NahG-expressing tomato, not significant) was “+9%”. For the same compound, the “improvement of seedling emergence” value in series [5] was “+27%”. Also, the “change of number of galls, plants treated with both PA and DIECA vs untreated wild type plants” value in series [6] is given as −31%. Further, the “difference in number of galls, plants treated with both PA and DIECA vs PA-treated wild type plants” value in series [6] (not significant) was “+14%”. Also, the “Fold change vs. control, OsAOS2 expression” value in series [7] was 0.71. In series [8], the “Total yield (seed mass)” value is “not significantly different”, the “germination after fourteen days of freshly harvested seeds” value was “not significantly different”, the “mean number of ears per plant” value is reported as “the same in all treatments” and the “seed size (stacking density)” value is “no effect”.

The values are drawn from patent US11992011B2, “Compounds for controlling plant pathogens” (VIB VZW, priority 2017, dated 2024).
